Results from patent US10226041B2, “Compositions and methods for improving the quality of processed sperm” (Inguran, LLC, priority 2011, dated 2019).

System: sex-sorted sperm cells
Assay: CASA post-thaw motility of sex sorted bull sperm treated with OSR
Format: cell-based, bovine
Details: 3 hr; 1 step-stain (+−−); Bull C (Jersey), Trial 2

vitamin B12
% Motility: 37%
